Experimental data reported in patent publication US9968587B2, “Heterocycle analogs of CAI-1 as agonists of quorum sensing in vibrio” (THE TRUSTEES OF PRINCETON UNIVERSITY, priority 2013, dated 2018).
Like-named read-outs stand apart in the source and are kept apart here.

Experiments:
HapR = assay: Western blot analysis of HapR production; type: cell-based, Vibrio cholerae
Description: (§1) In vivo, HapR is a transcription factor that functions as one of two master QS regulators in V. cholerae. Agonism of CqsS leads to increased production of HapR and HapR, in turn, drives the high-cell density gene expression program, which leads to repression of the expression of genes required for virulence and biofilm formation. […] Conversely, production the major V. cholerae virulence factor, TcpA, (toxin-co-regulated pilis protein subunit A), is repressed by both CAI-1 and compound 18.
(§2) Overnight cultures of V. cholerae CqsA-LuxQ—were diluted 1000-fold in AKI medium containing the indicated compounds. The cultures were grown under static conditions at 37° C. for 4 h and then were shaken for 18 h at 37° C. Cells were collected by centrifugation, TcpA and HapR from different samples were analyzed by Western Blot as described in references.

TcpA = assay: Western blot analysis of TcpA production; type: cell-based, Vibrio cholerae; details: FIG. 3, DMSO control
Description: as §1, §2

[1] = molecular target: V. cholerae CqsS receptor (Vibrio cholerae serotype O1, UniProt Q9KM66); assay: CqsS agonist bioassay (V. cholerae reporter strain MM920, bioluminescence); details: for EC50: mean of triplicate analyses; for QS agonist potency (in words) / level of QS activation (in words): CqsS agonist bioassay
Sequence of V. cholerae CqsS receptor (Q9KM66 whole entry, looked up): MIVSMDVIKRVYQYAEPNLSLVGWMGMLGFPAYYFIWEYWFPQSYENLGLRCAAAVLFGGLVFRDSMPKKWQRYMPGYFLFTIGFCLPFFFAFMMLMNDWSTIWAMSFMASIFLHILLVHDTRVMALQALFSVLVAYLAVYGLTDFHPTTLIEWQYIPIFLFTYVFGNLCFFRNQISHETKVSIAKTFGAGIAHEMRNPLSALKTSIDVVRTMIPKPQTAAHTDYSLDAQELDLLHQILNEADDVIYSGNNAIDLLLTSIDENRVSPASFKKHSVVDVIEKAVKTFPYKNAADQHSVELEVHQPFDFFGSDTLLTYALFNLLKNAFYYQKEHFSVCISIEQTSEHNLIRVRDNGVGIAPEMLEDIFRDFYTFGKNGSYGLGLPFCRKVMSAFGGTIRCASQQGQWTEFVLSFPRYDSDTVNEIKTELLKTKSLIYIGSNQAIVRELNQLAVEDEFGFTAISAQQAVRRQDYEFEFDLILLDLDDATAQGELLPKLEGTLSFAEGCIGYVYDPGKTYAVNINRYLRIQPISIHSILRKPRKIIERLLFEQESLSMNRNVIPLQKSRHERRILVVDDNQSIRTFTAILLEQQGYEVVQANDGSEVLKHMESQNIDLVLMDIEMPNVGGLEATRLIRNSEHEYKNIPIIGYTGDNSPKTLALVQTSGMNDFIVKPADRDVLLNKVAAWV
Description: The molecules were bioassayed in a system that exploits the V. cholerae quorum sensing circuit. The bioassay used a bacterial reporter strain to measure the QS response. Values for percent of activation correspond to the level of bioluminescence produced in the bacterial reporter strain at saturating concentrations of molecule compared to the maximal levels produced in the presence of a native autoinducer molecule (Ea-CAI-1). […] The EC50 values correspond to the concentrations that are required to activate quorum sensing to its half-maximal level.
DMSO was used as the negative control.
EC50 values were calculated by Prism 5 using standard settings and are described in the Tables and text with the error representing the 95% confidence interval for the calculated EC50 value.
The values for % response described in the Tables and text describe the maximal luminescence change for each of the analogs as a percent of EaCAI-1 or 18 (set at 100%). One of these molecules was included as a positive standard of activity for each of the assays.

[2] = system: Vibrio cholerae strain MM920; assay: Cytotoxicity of compound 18 in V. cholerae as assessed by OD600; details: FIG. 9, OD600
[3] = EC50, QS agonist activity, reporter strain MM920, 4-hour incubation at 30° C.
[4] = EC50, complete bioassay data, error = 95% confidence interval
[5] = read-out: % Response, Percent maximal bioluminescence with respect to Ea-CAI-1, which is set at 100%
[6] = read-out: % Response, complete bioassay data, percent maximal bioluminescence with respect to Ea-CAI-1 (100%), error = 95% confidence interval

| SMILES | EC50 [1, 4] [µM] | Emax [1, 6] [%] | QS agonist potency (in words) [1] | further results |
| --- | --- | --- | --- | --- |
| CCCCCCCCCC(=O)[C@@H](O)CC [CAI-1, (S)-3-hydroxytridecan-4-one] | – | – | – | production of HapR (HapR; 10 μM of CAI-1, FIG. 3, DMSO control): activate production of HapR; production of virulence factor TcpA (TcpA): repressed |
| C/C=C(\N)C(=O)CCCCC [Compound 6, (Z)-3-aminonon-2-en-4-one] | 0.594 ± 0.319 | 100 ± 57 | – | EC50 [1, 3]: 0.59 µM; Emax [1, 5]: 100% |
| C/C=C(\N)C(=O)CCCCCCC [Compound 8, (Z)-3-aminoundec-2-en-4-one] | – | 109 ± 25 | – | Emax [1, 5]: 109% |
| C/C=C(\N)C(=O)CCCCCCCC [Compound 9, (Z)-3-aminododec-2-en-4-one] | 0.0026 ± 0.00032 | 112 ± 7 | low nM activity | level of QS activation (in words) [1]: full activation; EC50 [1, 3]: 0.0026 µM; Emax [1, 5]: 112% |
| C/C=C(\N)C(=O)CCCCCCCCCCCC [Compound 11, (Z)-3-aminohexadec-2-en-4-one] | > 5 | 38 | much less active | EC50 [1, 3]: > 225 µM; Emax [1, 5]: 38% |
| CCCCCCCCCC(=O)c1ccc[nH]1 [Compound 17, 1-(1H-pyrrol-2-yl)decan-1-one] | 5.17 | 103 ± 91 | – | level of QS activation (in words) [1]: full level of QS response |
| CCCCCCCCCC(=O)c1cc[nH]c1 [Compound 18, 1-(1H-pyrrol-3-yl)decan-1-one] | – | – | – | effect on bacterial growth (in words) [2]: does not inhibit bacterial growth; production of HapR (HapR; 1 μM of 18, FIG. 3, DMSO control): increased; production of virulence factor TcpA (TcpA): repressed |
| CCCCCCCCCC(=O)c1cc(C)[nH]c1C [Compound 19, 1-(2,5-dimethyl-1H-pyrrol-3-yl)decan-1-one] | 0.679 ± 0.092 | 66 ± 14 | lower agonist activity | – |
| CCCCCCCCCC(=O)c1c(C)c[nH]c1C [Compound 20, 1(2,4-dimethyl-1H-pyrrol-3-yl)decan-1-one] | 0.536 ± 0.08 | 65 ± 16 | lower agonist activity | – |
| CCCCc1ccc(CCC(=O)c2cc[nH]c2)cc1 [Compound 26, 3-(4-butylphenyl)-1-(1H-pyrrol-3-yl)propan-1-one] | 0.0109 ± 0.0048 | 64 ± 42 | – | – |
| CCCCc1ccc(CCC(=O)c2ccc[nH]2)cc1 [Compound 27, 3-(4-butylphenyl)-1-(1H-pyrrol-2-yl)propan-1-one] | 2.02 ± 1.68 | 75 ± 45 | – | – |
| O=C(CCCCCCc1ccccc1)c1cc[nH]c1 [Compound 28, 7-phenyl-1-(1H-pyrrol-3-yl)heptan-1-one] | 0.0358 ± 0.0061 | 75 ± 10 | – | – |
| O=C(CCCCCCc1ccccc1)c1ccc[nH]1 [Compound 29, 7-phenyl-1-(1H-pyrrol-2-yl)heptan-1-one] | > 5 | 60 | – | – |
| CCCCc1ccc(/C=C/C(=O)c2cc[nH]c2)cc1 [Compound 30, 3-(4-butylphenyl)-1-(1H-pyrrol-3-yl)prop-2-en-1-one] | 0.0884 ± 0.0249 | 54 ± 29 | – | – |
| CCCCc1ccc(/C=C/C(=O)c2ccc[nH]2)cc1 [Compound 31, 3-(4-butylphenyl)-1-(1H-pyrrol-2-yl)prop-2-en-1-one] | 0.731 ± 0.686 | 45 ± 62 | – | – |
| CCCCCCC/C=C/C(=O)c1ccc[nH]1 [Compound 33, (E)-1-(1H-pyrrol-2-yl)dec-2-en-1-one] | 0.288 ± 0.092 | 109 ± 31 | – | – |
| O=C(Cc1ccc(-c2ccccc2)cc1)c1cc[nH]c1 [Compound 34, 2-([1,1′-biphenyl]-4-yl)-1-(1H-pyrrol-3-yl)ethanone] | > 5 | 25 | essentially inactive | – |
| O=C(Cc1ccc(-c2ccccc2)cc1)c1ccc[nH]1 [Compound 35, 2-([1,1′-biphenyl]-4-yl)-1-(1H-pyrrol-2-yl)ethanone] | > 5 | 26 | essentially inactive | – |
| C/C=C(\N)C(=O)CCCCCCCCC [Ea-CAI-1, (Z)-3-aminotridec-2-en-4-one, reference compound] | – | 100 ± 6.6 | low nM activity | level of QS activation (in words) [1]: full activation; EC50 [1, 3]: 0.0041 µM; Emax [1, 5]: 100% |
